# Values of other authors in patent publication US20240196931A1, “BOTANICAL SUPPLEMENT AND METHOD FOR PREVENTING DISEASES, PROMOTING GROWTH AND SURVIVAL OF AN ANIMAL BY USING THE SAME” (ACADEMIA SINICA, priority 2022, published 2024).
# How the values were obtained:
# [1] = system: sepsis; details: sepsis induced by endotoxin or cecal ligation puncture
# [2] = system: melanoma and breast cancer cell metastasis; details: in vitro and in xenograft or allograft mouse tumor models
compound,measurement,setting,value
"CC/C=C\C/C=C\C/C=C\CCCCCCCC(=O)OC[C@H](CO[C@@H]1O[C@H](CO)[C@H](O)[C@H](O)[C@H]1O)OC(=O)CCCCCCC/C=C\C/C=C\C/C=C\CC [dLGG, 1,2-di-O-α-linolenoyl-3-O-β-galactopyranosyl-sn-glycerol]",Effect against sepsis in mouse,[1],preventive and therapeutic effect
same,Effect on melanoma and breast cancer cell metastasis,[2],suppressive effects
